Assay results published in PubChem BioAssay (NCI).
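Method: 48-hour compound exposure of cells in 96-well plates, five concentrations, linear interpolation of endpoints. TGI marks complete inhibition of growth.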

Columns and labels:
Test in all cases: growth of human tumour cells (NCI), 48 h
DU-145 prostate = system: DU-145 prostate
OVCAR-8 ovarian = system: OVCAR-8 ovarian
SNB-19 CNS = system: SNB-19 CNS
CCRF-CEM leukemia = system: CCRF-CEM leukemia
NCI-H226 lung = system: NCI-H226 lung
MDA-MB-231 breast = system: MDA-MB-231 breast
HS 578T breast = system: HS 578T breast
COLO 205 colon = system: COLO 205 colon
MALME-3M melanoma = system: MALME-3M melanoma
UACC-257 melanoma = system: UACC-257 melanoma
OVCAR-5 ovarian = system: OVCAR-5 ovarian
KM12 colon = system: KM12 colon
ACHN renal = system: ACHN renal
SK-MEL-28 melanoma = system: SK-MEL-28 melanoma
SW-620 colon = system: SW-620 colon
HOP-62 NSCLC = system: HOP-62 NSCLC
UACC-62 melanoma = system: UACC-62 melanoma
SK-OV-3 ovarian = system: SK-OV-3 ovarian
EKVX NSCLC = system: EKVX NSCLC
HOP-92 NSCLC = system: HOP-92 NSCLC
CAKI-1 renal = system: CAKI-1 renal
SN12C renal = system: SN12C renal
786-0 renal = system: 786-0 renal
SF-295 CNS = system: SF-295 CNS
MCF7 breast = system: MCF7 breast
MDA-MB-435 = system: MDA-MB-435
SF-268 CNS = system: SF-268 CNS
TK-10 renal = system: TK-10 renal
HL-60(TB) leukemia = system: HL-60(TB) leukemia
OVCAR-3 ovarian = system: OVCAR-3 ovarian
RXF 393 renal = system: RXF 393 renal
M14 melanoma = system: M14 melanoma
OVCAR-4 ovarian = system: OVCAR-4 ovarian
NCI-H23 lung = system: NCI-H23 lung
HCT-15 colon = system: HCT-15 colon
SK-MEL-2 melanoma = system: SK-MEL-2 melanoma
HCT-116 colon = system: HCT-116 colon
HCC-2998 colon = system: HCC-2998 colon
RPMI-8226 leukemia = system: RPMI-8226 leukemia
NCI/ADR-RES ovarian = system: NCI/ADR-RES ovarian
A498 renal = system: A498 renal
K-562 leukemia = system: K-562 leukemia
MOLT-4 leukemia = system: MOLT-4 leukemia
MDA-N = system: MDA-N
LOX IMVI melanoma = system: LOX IMVI melanoma
NCI-H522 lung = system: NCI-H522 lung
SR leukemia = system: SR leukemia
T-47D breast = system: T-47D breast
UO-31 renal = system: UO-31 renal
BT-549 breast = system: BT-549 breast
SK-MEL-5 melanoma = system: SK-MEL-5 melanoma
U251 CNS = system: U251 CNS
HT29 colon = system: HT29 colon
A549 NSCLC = system: A549 NSCLC
SNB-75 CNS = system: SNB-75 CNS
IGROV1 ovarian = system: IGROV1 ovarian
PC-3 prostate = system: PC-3 prostate
SF-539 CNS = system: SF-539 CNS
NCI-H460 lung = system: NCI-H460 lung

Cc1cc(Cc2cc(Cc3cc(C)cc(C(C)(C)C)c3O)c(C)cc2C)c(O)c(C(C)(C)C)c1
TGI (DU-145 prostate): 27.6 µM | TGI (OVCAR-8 ovarian): 75.4 µM | TGI (SNB-19 CNS): 31.9 µM | TGI (CCRF-CEM leukemia): 48.3 µM | TGI (NCI-H226 lung): 31.5 µM | TGI (MDA-MB-231 breast): > 100 µM | TGI (HS 578T breast): 52 µM | TGI (COLO 205 colon): 36.7 µM | TGI (MALME-3M melanoma): 31.7 µM | TGI (UACC-257 melanoma): 34.8 µM | TGI (OVCAR-5 ovarian): 42.9 µM | TGI (KM12 colon): 34.7 µM | TGI (ACHN renal): 30.3 µM | TGI (SK-MEL-28 melanoma): 37 µM | TGI (SW-620 colon): 40.8 µM | TGI (HOP-62 NSCLC): 36.2 µM | TGI (UACC-62 melanoma): 28.1 µM | TGI (SK-OV-3 ovarian): 35.6 µM | TGI (EKVX NSCLC): 34.5 µM | TGI (HOP-92 NSCLC): 29.2 µM | TGI (CAKI-1 renal): 42.9 µM | TGI (SN12C renal): 31.7 µM | TGI (786-0 renal): 31.6 µM | TGI (SF-295 CNS): 39.4 µM | TGI (MCF7 breast): 27.2 µM | TGI (MDA-MB-435): 26.2 µM | TGI (SF-268 CNS): 35.4 µM | TGI (TK-10 renal): 55.1 µM | TGI (HL-60(TB) leukemia): 46.9 µM | TGI (OVCAR-3 ovarian): 32.9 µM | TGI (RXF 393 renal): 24.8 µM | TGI (M14 melanoma): 33.8 µM | TGI (OVCAR-4 ovarian): 25.4 µM | TGI (NCI-H23 lung): 37.9 µM | TGI (HCT-15 colon): 42 µM | TGI (SK-MEL-2 melanoma): > 100 µM | TGI (HCT-116 colon): 30 µM | TGI (HCC-2998 colon): 27.1 µM | TGI (RPMI-8226 leukemia): 65 µM | TGI (NCI/ADR-RES ovarian): 42.4 µM | TGI (A498 renal): 30.6 µM | TGI (K-562 leukemia): 45 µM | TGI (MOLT-4 leukemia): > 100 µM | TGI (MDA-N): 35 µM | TGI (LOX IMVI melanoma): 41.9 µM | TGI (NCI-H522 lung): 34 µM | TGI (SR leukemia): 70.6 µM | TGI (T-47D breast): 34.8 µM | TGI (UO-31 renal): 32 µM | TGI (BT-549 breast): 40.6 µM | TGI (SK-MEL-5 melanoma): 30.2 µM | TGI (U251 CNS): > 100 µM | TGI (HT29 colon): 34.7 µM | TGI (A549 NSCLC): 30.8 µM | TGI (SNB-75 CNS): 23.9 µM | TGI (IGROV1 ovarian): 40.5 µM | TGI (PC-3 prostate): > 100 µM

COc1cccc(N=Cc2cc(OC)c(OC)c(OC)c2)c1
TGI (DU-145 prostate): > 100 µM | TGI (OVCAR-8 ovarian): > 100 µM | TGI (CCRF-CEM leukemia): > 100 µM | TGI (NCI-H226 lung): > 100 µM | TGI (MDA-MB-231 breast): > 100 µM | TGI (HS 578T breast): > 100 µM | TGI (COLO 205 colon): > 100 µM | TGI (MALME-3M melanoma): > 100 µM | TGI (UACC-257 melanoma): > 100 µM | TGI (OVCAR-5 ovarian): > 100 µM | TGI (KM12 colon): > 100 µM | TGI (ACHN renal): > 100 µM | TGI (SK-MEL-28 melanoma): > 100 µM | TGI (SW-620 colon): > 100 µM | TGI (HOP-62 NSCLC): > 100 µM | TGI (SK-OV-3 ovarian): > 100 µM | TGI (EKVX NSCLC): > 100 µM | TGI (HOP-92 NSCLC): > 100 µM | TGI (SF-539 CNS): > 100 µM | TGI (CAKI-1 renal): > 100 µM | TGI (SN12C renal): > 100 µM | TGI (786-0 renal): > 100 µM | TGI (SF-295 CNS): > 100 µM | TGI (MCF7 breast): > 100 µM | TGI (MDA-MB-435): > 100 µM | TGI (SF-268 CNS): > 100 µM | TGI (TK-10 renal): > 100 µM | TGI (HL-60(TB) leukemia): > 100 µM | TGI (OVCAR-3 ovarian): > 100 µM | TGI (RXF 393 renal): > 100 µM | TGI (M14 melanoma): > 100 µM | TGI (OVCAR-4 ovarian): > 100 µM | TGI (NCI-H23 lung): > 100 µM | TGI (HCT-15 colon): > 100 µM | TGI (SK-MEL-2 melanoma): > 100 µM | TGI (HCT-116 colon): > 100 µM | TGI (HCC-2998 colon): > 100 µM | TGI (RPMI-8226 leukemia): > 100 µM | TGI (NCI/ADR-RES ovarian): > 100 µM | TGI (NCI-H460 lung): > 100 µM | TGI (A498 renal): > 100 µM | TGI (K-562 leukemia): > 100 µM | TGI (MOLT-4 leukemia): > 100 µM | TGI (MDA-N): > 100 µM | TGI (LOX IMVI melanoma): > 100 µM | TGI (NCI-H522 lung): > 100 µM | TGI (SR leukemia): > 100 µM | TGI (T-47D breast): > 100 µM | TGI (UO-31 renal): > 100 µM | TGI (BT-549 breast): > 100 µM | TGI (SK-MEL-5 melanoma): > 100 µM | TGI (U251 CNS): > 100 µM | TGI (HT29 colon): > 100 µM | TGI (A549 NSCLC): > 100 µM | TGI (SNB-75 CNS): > 100 µM | TGI (IGROV1 ovarian): > 100 µM | TGI (PC-3 prostate): > 100 µM
